Measurements from the NIST ThermoML archive (doi:10.1016/j.jct.2015.06.004).

Columns and labels:
[1] = 298.15 K; 101.33 kPa; Liquid; Vibrating tube method
[2] = excess molar enthalpy (molar enthalpy of mixing); xn = mol fraction of the nth substance listed; settings: 298.15 K, 100 kPa, Liquid, Power-compensation calorimetry

CCCC[N+]1(C)CCCC1.N#C[B-](C#N)(C#N)C#N [1-butyl-1-methylpyrrolidinium tetracyanoborate]
Settings | mass density [kg/m3]
[1] | 975.61

CCCC[N+]1(C)CCCC1.N#C[B-](C#N)(C#N)C#N [1-butyl-1-methylpyrrolidinium tetracyanoborate] + CCCCO
[2]
Settings | excess molar enthalpy [kcal/mol]
x1 = 0.0149 | 0.0582
x1 = 0.03 | 0.111
x1 = 0.0449 | 0.159
x1 = 0.0599 | 0.202
x1 = 0.0749 | 0.242
x1 = 0.0899 | 0.279
x1 = 0.1049 | 0.313
x1 = 0.1199 | 0.344
x1 = 0.1349 | 0.373
x1 = 0.1499 | 0.4
x1 = 0.1649 | 0.425
x1 = 0.1799 | 0.448
x1 = 0.1949 | 0.469
x1 = 0.2099 | 0.489
x1 = 0.2248 | 0.507
x1 = 0.2399 | 0.524
x1 = 0.2549 | 0.539
x1 = 0.2698 | 0.553
x1 = 0.2849 | 0.565
x1 = 0.2999 | 0.576
x1 = 0.4828 | 0.591
x1 = 0.5199 | 0.579
x1 = 0.557 | 0.561
x1 = 0.5941 | 0.537
x1 = 0.631 | 0.508
x1 = 0.6681 | 0.474
x1 = 0.7049 | 0.435
x1 = 0.7419 | 0.392
x1 = 0.7789 | 0.346
x1 = 0.8157 | 0.295
x1 = 0.8525 | 0.242
x1 = 0.8892 | 0.186
x1 = 0.9262 | 0.126
x1 = 0.9632 | 0.0638

CCCC[N+]1(C)CCCC1.N#C[B-](C#N)(C#N)C#N [1-butyl-1-methylpyrrolidinium tetracyanoborate] + CCCO
[2]
Settings | excess molar enthalpy [kcal/mol]
x1 = 0.014 | 0.0518
x1 = 0.028 | 0.0994
x1 = 0.042 | 0.143
x1 = 0.056 | 0.183
x1 = 0.07 | 0.22
x1 = 0.084 | 0.255
x1 = 0.098 | 0.287
x1 = 0.112 | 0.317
x1 = 0.126 | 0.345
x1 = 0.1399 | 0.37
x1 = 0.1539 | 0.394
x1 = 0.168 | 0.417
x1 = 0.1819 | 0.437
x1 = 0.1959 | 0.456
x1 = 0.21 | 0.474
x1 = 0.224 | 0.49
x1 = 0.2257 | 0.484
x1 = 0.238 | 0.504
x1 = 0.252 | 0.518
x1 = 0.2592 | 0.522
x1 = 0.264 | 0.528
x1 = 0.2983 | 0.553
x1 = 0.3374 | 0.573
x1 = 0.3765 | 0.584
x1 = 0.4156 | 0.588
x1 = 0.4547 | 0.584
x1 = 0.4938 | 0.573
x1 = 0.5329 | 0.556
x1 = 0.572 | 0.533
x1 = 0.611 | 0.505
x1 = 0.65 | 0.471
x1 = 0.6891 | 0.433
x1 = 0.7282 | 0.39
x1 = 0.7672 | 0.343
x1 = 0.8062 | 0.292
x1 = 0.8451 | 0.238
x1 = 0.8839 | 0.18
x1 = 0.9228 | 0.119
x1 = 0.9615 | 0.0556

CCCC[N+]1(C)CCCC1.N#C[B-](C#N)(C#N)C#N [1-butyl-1-methylpyrrolidinium tetracyanoborate] + CCO
[2]
Settings | excess molar enthalpy [kcal/mol]
x1 = 0.0134 | 0.0375
x1 = 0.0268 | 0.0729
x1 = 0.0402 | 0.107
x1 = 0.0537 | 0.14
x1 = 0.0672 | 0.171
x1 = 0.0808 | 0.201
x1 = 0.0948 | 0.23
x1 = 0.1088 | 0.257
x1 = 0.1228 | 0.283
x1 = 0.1368 | 0.307
x1 = 0.1509 | 0.329
x1 = 0.1511 | 0.334
x1 = 0.165 | 0.35
x1 = 0.1652 | 0.355
x1 = 0.1792 | 0.369
x1 = 0.1902 | 0.389
x1 = 0.1933 | 0.387
x1 = 0.2067 | 0.403
x1 = 0.2202 | 0.424
x1 = 0.2403 | 0.444
x1 = 0.2803 | 0.477
x1 = 0.3203 | 0.501
x1 = 0.3604 | 0.517
x1 = 0.4005 | 0.525
x1 = 0.4406 | 0.527
x1 = 0.4806 | 0.521
x1 = 0.5206 | 0.51
x1 = 0.5607 | 0.492
x1 = 0.6007 | 0.47
x1 = 0.6408 | 0.441
x1 = 0.6807 | 0.408
x1 = 0.7203 | 0.371
x1 = 0.7604 | 0.328
x1 = 0.8002 | 0.282
x1 = 0.8402 | 0.232
x1 = 0.8802 | 0.178
x1 = 0.9201 | 0.121
x1 = 0.96 | 0.0612

CCCC[N+]1(C)CCCC1.N#C[B-](C#N)(C#N)C#N [1-butyl-1-methylpyrrolidinium tetracyanoborate] + CO
[2]
Settings | excess molar enthalpy [kcal/mol]
x1 = 0.013 | 0.0258
x1 = 0.026 | 0.0519
x1 = 0.039 | 0.0782
x1 = 0.052 | 0.104
x1 = 0.065 | 0.129
x1 = 0.078 | 0.153
x1 = 0.091 | 0.176
x1 = 0.104 | 0.197
x1 = 0.117 | 0.218
x1 = 0.13 | 0.237
x1 = 0.1362 | 0.255
x1 = 0.143 | 0.254
x1 = 0.156 | 0.271
x1 = 0.1602 | 0.288
x1 = 0.169 | 0.287
x1 = 0.1775 | 0.297
x1 = 0.2003 | 0.334
x1 = 0.2404 | 0.37
x1 = 0.2805 | 0.399
x1 = 0.3207 | 0.419
x1 = 0.3608 | 0.432
x1 = 0.4009 | 0.439
x1 = 0.441 | 0.439
x1 = 0.4812 | 0.434
x1 = 0.5213 | 0.423
x1 = 0.5615 | 0.407
x1 = 0.6016 | 0.386
x1 = 0.6416 | 0.361
x1 = 0.6816 | 0.331
x1 = 0.7217 | 0.298
x1 = 0.7616 | 0.261
x1 = 0.8015 | 0.221
x1 = 0.8414 | 0.177
x1 = 0.8814 | 0.13
x1 = 0.9213 | 0.0811
x1 = 0.9606 | 0.0317

CCCC[N+]1(C)CCCC1.N#C[B-](C#N)(C#N)C#N [1-butyl-1-methylpyrrolidinium tetracyanoborate] + Cc1ccccc1
[2]
Settings | excess molar enthalpy [kcal/mol]
x1 = 0.0179 | -0.0242
x1 = 0.0359 | -0.0474
x1 = 0.0539 | -0.0702
x1 = 0.0719 | -0.093
x1 = 0.0898 | -0.116
x1 = 0.1079 | -0.138
x1 = 0.1259 | -0.161
x1 = 0.1439 | -0.184
x1 = 0.1619 | -0.206
x1 = 0.1799 | -0.228
x1 = 0.1979 | -0.249
x1 = 0.2159 | -0.271
x1 = 0.2339 | -0.291
x1 = 0.2519 | -0.304
x1 = 0.2698 | -0.313
x1 = 0.2878 | -0.319
x1 = 0.2933 | -0.315
x1 = 0.3059 | -0.322
x1 = 0.3203 | -0.319
x1 = 0.3239 | -0.323
x1 = 0.3369 | -0.321
x1 = 0.3603 | -0.312
x1 = 0.4004 | -0.301
x1 = 0.4405 | -0.285
x1 = 0.4805 | -0.267
x1 = 0.5206 | -0.247
x1 = 0.5606 | -0.226
x1 = 0.6006 | -0.206
x1 = 0.6407 | -0.184
x1 = 0.6807 | -0.163
x1 = 0.7207 | -0.141
x1 = 0.7606 | -0.12
x1 = 0.8006 | -0.0991
x1 = 0.8405 | -0.0784
x1 = 0.8803 | -0.058
x1 = 0.9202 | -0.0379
x1 = 0.9601 | -0.0183

CCCC[N+]1(C)CCCC1.N#C[B-](C#N)(C#N)C#N [1-butyl-1-methylpyrrolidinium tetracyanoborate] + c1ccccc1
[2]
Settings | excess molar enthalpy [kcal/mol]
x1 = 0.0138 | -0.0203
x1 = 0.0277 | -0.0402
x1 = 0.0415 | -0.06
x1 = 0.0555 | -0.0799
x1 = 0.0694 | -0.0998
x1 = 0.0834 | -0.12
x1 = 0.0975 | -0.14
x1 = 0.1115 | -0.16
x1 = 0.1256 | -0.18
x1 = 0.1398 | -0.2
x1 = 0.1539 | -0.219
x1 = 0.1681 | -0.238
x1 = 0.1824 | -0.253
x1 = 0.1966 | -0.266
x1 = 0.2109 | -0.277
x1 = 0.2253 | -0.285
x1 = 0.2396 | -0.29
x1 = 0.2534 | -0.29
x1 = 0.254 | -0.294
x1 = 0.2685 | -0.296
x1 = 0.2767 | -0.296
x1 = 0.28 | -0.296
x1 = 0.3165 | -0.294
x1 = 0.3564 | -0.284
x1 = 0.3963 | -0.269
x1 = 0.4362 | -0.252
x1 = 0.4762 | -0.232
x1 = 0.5162 | -0.212
x1 = 0.5564 | -0.192
x1 = 0.5965 | -0.172
x1 = 0.6367 | -0.153
x1 = 0.6769 | -0.134
x1 = 0.7172 | -0.116
x1 = 0.7575 | -0.0981
x1 = 0.7979 | -0.0803
x1 = 0.8384 | -0.0632
x1 = 0.8788 | -0.0466
x1 = 0.9191 | -0.0305
x1 = 0.9596 | -0.0149

CCCC[N+]1(C)CCCC1.N#C[B-](C#N)(C#N)C#N [1-butyl-1-methylpyrrolidinium tetracyanoborate] + c1ccsc1
[2]
Settings | excess molar enthalpy [kcal/mol]
x1 = 0.0147 | -0.0239
x1 = 0.0293 | -0.0467
x1 = 0.0439 | -0.0692
x1 = 0.0586 | -0.0916
x1 = 0.0732 | -0.114
x1 = 0.0879 | -0.136
x1 = 0.1026 | -0.158
x1 = 0.1173 | -0.18
x1 = 0.1321 | -0.202
x1 = 0.1468 | -0.224
x1 = 0.1616 | -0.245
x1 = 0.1763 | -0.263
x1 = 0.1911 | -0.279
x1 = 0.2059 | -0.292
x1 = 0.2207 | -0.302
x1 = 0.2316 | -0.303
x1 = 0.2355 | -0.31
x1 = 0.2503 | -0.316
x1 = 0.2515 | -0.311
x1 = 0.2642 | -0.319
x1 = 0.2763 | -0.315
x1 = 0.316 | -0.313
x1 = 0.3559 | -0.303
x1 = 0.3957 | -0.289
x1 = 0.4356 | -0.272
x1 = 0.4756 | -0.253
x1 = 0.5155 | -0.233
x1 = 0.5556 | -0.213
x1 = 0.5958 | -0.192
x1 = 0.636 | -0.172
x1 = 0.6763 | -0.151
x1 = 0.7165 | -0.131
x1 = 0.757 | -0.111
x1 = 0.7974 | -0.0918
x1 = 0.8378 | -0.0726
x1 = 0.8782 | -0.0537
x1 = 0.9188 | -0.0352
x1 = 0.9595 | -0.017

c1ccccc1 [benzene]
Settings | mass density [kg/m3]
[1] | 873.57

CCCCO [butan-1-ol]
Settings | mass density [kg/m3]
[1] | 805.79

CCO [ethanol]
Settings | mass density [kg/m3]
[1] | 785.39

CO [methanol]
Settings | mass density [kg/m3]
[1] | 786.6

CCCO [propan-1-ol]
Settings | mass density [kg/m3]
[1] | 799.56

c1ccsc1 [thiophene]
Settings | mass density [kg/m3]
[1] | 1058.46

Cc1ccccc1 [toluene]
Settings | mass density [kg/m3]
[1] | 862.22
